This experiment deals with Leishmania major. Description: In vitro inhibition of growth of Leishmania major promastigotes with the compound dissolved in DMSO using 3-H thymidine incorporation. The class given is functional, organism-based. (Dividing cells build labelled thymidine or BrdU into new DNA.)

The structures appear in SMILES notation.

Turning to `O=[N+]([O-])c1ccc(-c2nnc(N3CCNCC3)s2)o1`, the midpoint of inhibition, the IC50, lay at 8.9 µM.
Turning to `CN1CCN(c2nnc(-c3ccc([N+](=O)[O-])s3)s2)CC1`, the IC50 (in general, the midpoint of a concentration-inhibition curve) is 103 µM.
Regarding `O=[N+]([O-])c1ccc(-c2nnc(N3CCCCC3)s2)s1`, the IC50 was over 150 µM.
The molecule `O=C(c1ccccc1)N1CCN(c2nnc(-c3ccc([N+](=O)[O-])s3)s2)CC1` displayed an IC50 of 11.1 µM. In other words, the double-digit micromolar range.
The figure for `O=[N+]([O-])c1ccc(-c2nnc(N3CCN(c4ccccc4)CC3)s2)s1` is 106 µM; for `CN1CCN(c2nnc(-c3ccc([N+](=O)[O-])o3)s2)CC1` it is 7.3 µM.
`CC(=O)N1CCN(c2nnc(-c3ccc([N+](=O)[O-])o3)s2)CC1` showed an IC50 of 1.1 µM.
The figure for `O=[N+]([O-])c1ccc(-c2nnc(N3CCOCC3)s2)s1` is 10.6 µM; for `CC(=O)N1CCN(c2nnc(-c3ccc([N+](=O)[O-])s3)s2)CC1` it is 48.5 µM.
Consider `O=C(c1ccccc1)N1CCN(c2nnc(-c3ccc([N+](=O)[O-])o3)s2)CC1`, for which the IC50 is 0.5 µM.
The same measure for `O=[N+]([O-])c1ccc(-c2nnc(N3CCCCC3)s2)o1`: 3.2 µM.
Consider `O=[N+]([O-])c1ccc(-c2nnc(N3CCOCC3)s2)o1`, for which half-maximal inhibition (IC50) was put at 5.2 µM.
As for `O=[N+]([O-])c1ccc(-c2nnc(N3CCN(c4ccccc4)CC3)s2)o1`, it took 0.1 µM to reach half-maximal inhibition (IC50).
The figure for `O=[N+]([O-])c1ccc(-c2nnc(N3CCNCC3)s2)s1` is over 150 µM.

Source of the values: ChEMBL document CHEMBL1143517, “Synthesis and in vitro leishmanicidal activity of 2-(5-nitro-2-furyl) and 2-(5-nitro-2-thienyl)-5-substituted-1,3,4-thiadiazoles” (Bioorg Med Chem Lett, 2005).
